From patent publication US20250092056A1, “URACIL DERIVATIVES HAVING VIRUS REPLICATION INHIBITORY ACTIVITY AND PHARMACEUTICAL COMPOSITION COMPRISING THE SAME” (Shionogi & Co., Ltd., priority 2022, published 2025)
Where two headings read alike, the source gives them in different places.

Experiments:
[1] = biological target: Recombinant SARS-CoV-2 3CL Protease (Severe acute respiratory syndrome coronavirus 2 (2019-nCoV) (SARS-CoV-2), UniProt P0DTD1); experiment: biochemical; assay type: biochemical
SARS-CoV-2 = experiment: Cytopathic effect (CPE) suppression effect confirmation test using HEK293T/ACE2-TMPRSS2 cells; assay type: cell-based; conditions: Severe acute respiratory syndrome coronavirus 2, HEK-293T, 72 h
[2] = read-out: EC50 (50% SARS-CoV-2 infected cell death inhibitory concentration), class, HEK293T/ACE2-TMPRSS2 cells, CPE suppression, CellTiter-Glo 2.0 after 3 days culture
[3] = 50% SARS-CoV-2 3CL protease inhibitory concentration, read-out: IC50
[4] = HEK293T/ACE2-TMPRSS2 cells, CPE suppression, CellTiter-Glo 2.0 after 3 days culture, read-out: EC50 (50% SARS-CoV-2 infected cell death inhibitory concentration), class
[5] = read-out: EC50 (50% SARS-CoV-2 infected cell death inhibitory concentration), HEK293T/ACE2-TMPRSS2 cells, CPE suppression, CellTiter-Glo 2.0 after 3 days culture

Compound | IC50 [1] | EC50 (SARS-CoV-2; [2]) | IC50 [1, 3] | EC50 (SARS-CoV-2; [4]) | EC50 (SARS-CoV-2; [5])
N#CCn1c(N2CC3CCC(CC3)C2)c(Cc2cc(F)c(F)c(F)c2)c(=O)n(-c2cnc3ccccn23)c1=O [Compound I-038] | 10 to 100 nM | < 100 nM | – | – | –
Cc1cnnc(-n2c(=O)c(Cc3cc(F)c(F)c(F)c3)c(N3Cc4ccccc4C3)n(CC#N)c2=O)c1 [Compound I-039] | – | < 100 nM | < 10 nM | – | –
N#CCn1c(N2Cc3ccccc3C2)c(Cc2cc(F)c(F)c(F)c2)c(=O)n(-c2cnc3ccccn23)c1=O [Compound I-040] | – | < 100 nM | < 10 nM | – | –
CCCOc1cc(Cl)cc(-c2c(N3Cc4ccccc4C3)n(CC#N)c(=O)n(-c3cncc(C)c3)c2=O)c1 [Compound I-041] | – | < 100 nM | < 10 nM | – | –
Cc1cncc(-n2c(=O)c(-c3cccc(Cl)c3)c(N3Cc4ccccc4C3)n(CC#N)c2=O)c1 [Compound I-042] | – | < 100 nM | < 10 nM | – | –
N#CCn1c(N2CC3(CCOC3)C2)c(-c2ccc(F)c(Cl)c2)c(=O)n(-c2cnc3ccccn23)c1=O [Compound I-043] | – | – | 10 to 100 nM | 100 to 1000 nM | –
Cc1cncc(-n2c(=O)c(-c3ccc(F)c(Cl)c3)c(N3CCC4(CCNC4=O)CC3)n(CC#N)c2=O)c1 [Compound I-044] | – | 100 to 1000 nM | < 10 nM | – | –
Cc1cncc(-n2c(=O)c(-c3ccc(F)c(Cl)c3)c(N3CC4(CCOC4)C3)n(CC#N)c2=O)c1 [Compound I-045] | – | < 100 nM | < 10 nM | – | –
Cc1cncc(-n2c(=O)c(Cc3cc(F)c(F)c(F)c3)c(/C=C/CO)n(CC#N)c2=O)c1 [Compound I-047] | – | 100 to 1000 nM | > 100 nM | – | –
Cc1cncc(-n2c(=O)c(Cc3cc(F)c(F)c(F)c3)c(-c3ccc(C)c(C)c3)n(C3(C#N)CC3)c2=O)c1 [Compound I-049] | – | – | 10 to 100 nM | 100 to 1000 nM | –
Cc1cncc(-n2c(=O)c(Cc3cc(F)c(F)c(F)c3)c(CCCO)n(CC#N)c2=O)c1 [Compound I-052] | – | – | 10 to 100 nM | < 100 nM | –
N#CCn1c(N2Cc3cn[nH]c3C2)c(Cc2cc(F)c(F)c(F)c2)c(=O)n(-c2cc[nH]c(=O)c2)c1=O [Compound I-053] | – | – | 32 nM | – | 2610 nM
N#CCn1c(Cl)c(-c2ccc(F)c(Cl)c2)c(=O)n(-c2cncc(Cl)c2)c1=O [Compound I-055] | – | – | 10 to 100 nM | 100 to 1000 nM | –
Cc1ccc(-c2c(Cc3cc(F)c(F)c(F)c3)c(=O)n(-c3cncc(Cl)c3)c(=O)n2CC#N)cc1C [Compound I-058] | – | < 100 nM | < 10 nM | – | –
N#CCn1c(N2CC3(CCOC3)C2)c(Cc2cc(F)c(F)c(F)c2)c(=O)n(-c2cncc(Cl)c2)c1=O [Compound I-059] | – | < 100 nM | < 10 nM | – | –
Cc1cncc(-n2c(=O)c(Cc3cc(F)c(F)c(F)c3)c(-c3ccc(C)c(C)c3)n(CC#N)c2=O)c1 [Compound I-060] | – | – | 4.7 nM | – | 19 nM
N#CCn1c(N2Cc3cn[nH]c3C2)c(Cc2cc(F)c(F)c(F)c2)c(=O)n(-c2cncc(Cl)c2)c1=O [Compound I-064] | – | < 100 nM | < 10 nM | – | –
Cc1cncc(-n2c(=O)c(Cc3cc(F)c(F)c(F)c3)c(-c3ccc(C)c(C)c3)n(C(C)(C)C#N)c2=O)c1 [Compound I-065] | – | < 100 nM | < 10 nM | – | –
Cc1cncc(-n2c(=O)c(-c3ccc(F)c(Cl)c3)c(-c3ccc(C(F)(F)F)c(Cl)c3)n(CC#N)c2=O)c1 [Compound I-066] | – | < 100 nM | < 10 nM | – | –
N#CCn1c(N2CCC3(CC2)CNC(=O)O3)c(-c2ccc(F)c(Cl)c2)c(=O)n(-c2cncc(Cl)c2)c1=O [Compound I-067] | – | 100 to 1000 nM | < 10 nM | – | –
CN1CCN(c2c(-c3ccc(F)c(Cl)c3)c(=O)n(-c3cncc(Cl)c3)c(=O)n2CC#N)CC1=O [Compound I-068] | – | < 100 nM | < 10 nM | – | –
N#CCn1c(N2CCC(C(F)(F)F)CC2)c(-c2ccc(F)c(Cl)c2)c(=O)n(-c2cncc(Cl)c2)c1=O [Compound I-069] | – | < 100 nM | < 10 nM | – | –
Cc1cncc(-n2c(=O)c(-c3ccc(F)c(Cl)c3)c(-c3ccc(C4CC4)cc3)n(CC#N)c2=O)c1 [Compound I-071] | – | < 100 nM | < 10 nM | – | –

Compound | IC50 [1] | EC50 (SARS-CoV-2; [2]) | IC50 [1, 3] | EC50 (SARS-CoV-2; [4]) | EC50 (SARS-CoV-2; [5])
CC(C)(O)C1CN(c2c(-c3ccc(F)c(Cl)c3)c(=O)n(-c3cncc(Cl)c3)c(=O)n2CC#N)C1 [Compound I-072] | – | – | 0.66 nM | – | 5.21 nM
Cc1cncc(-n2c(=O)c(-c3ccc(F)c(Cl)c3)c(N3CC4(C3)CC(F)(F)C4)n(CC#N)c2=O)c1 [Compound I-073] | – | < 100 nM | < 10 nM | – | –
Cc1cncc(-n2c(=O)c(-c3ccc(F)c(Cl)c3)c(N3Cc4cn[nH]c4C3)n(CC#N)c2=O)c1 [Compound I-074] | – | < 100 nM | < 10 nM | – | –
Cc1cncc(-n2c(=O)c(-c3ccc(F)c(Cl)c3)c(N3Cc4cccnc4C3)n(CC#N)c2=O)c1 [Compound I-075] | – | < 100 nM | < 10 nM | – | –
N#CCn1c(N2CC(F)(C3CC3)C2)c(-c2ccc(F)c(Cl)c2)c(=O)n(-c2cncc(Cl)c2)c1=O [Compound I-076] | – | < 100 nM | < 10 nM | – | –
N#CCn1c(N2CC3(CC3)C2)c(-c2ccc(F)c(Cl)c2)c(=O)n(-c2cncc(Cl)c2)c1=O [Compound I-078] | – | < 100 nM | < 10 nM | – | –
N#CCn1c(N2CC(c3nccs3)C2)c(-c2ccc(F)c(Cl)c2)c(=O)n(-c2cncc(Cl)c2)c1=O [Compound I-079] | – | < 100 nM | < 10 nM | – | –
N#CCn1c(N2C[C@@H]3[C@@H](O)[C@@H]3C2)c(-c2ccc(F)c(Cl)c2)c(=O)n(-c2cncc(Cl)c2)c1=O [Compound I-082] | – | < 100 nM | < 10 nM | – | –
N#CCn1c(N2CC(c3ccccc3)C2)c(-c2ccc(F)c(Cl)c2)c(=O)n(-c2cncc(Cl)c2)c1=O [Compound I-083] | – | < 100 nM | < 10 nM | – | –
CC(C)OC1CN(c2c(-c3ccc(F)c(Cl)c3)c(=O)n(-c3cncc(Cl)c3)c(=O)n2CC#N)C1 [Compound I-084] | – | < 100 nM | < 10 nM | – | –
N#CCn1c(N2CC(N3CCOCC3)C2)c(-c2ccc(F)c(Cl)c2)c(=O)n(-c2cncc(Cl)c2)c1=O [Compound I-085] | – | < 100 nM | < 10 nM | – | –
N#CCn1c(N2CC(C(F)(F)F)C2)c(-c2ccc(F)c(Cl)c2)c(=O)n(-c2cncc(Cl)c2)c1=O [Compound I-086] | – | – | 0.7 nM | – | 3.31 nM
N#CCn1c(N2CCC(O)(C(F)(F)F)CC2)c(-c2ccc(F)c(Cl)c2)c(=O)n(-c2cncc(Cl)c2)c1=O [Compound I-087] | – | < 100 nM | < 10 nM | – | –
Cc1cncc(-n2c(=O)c(Cc3cc(F)c(F)c(F)c3)c(N3CC(F)C3)n(CC#N)c2=O)c1 [Compound I-090] | – | – | 10 to 100 nM | < 100 nM | –
Cc1cncc(-n2c(=O)c(Cc3cc(F)c(F)c(F)c3)c(N3CC4(CCOCC4)C3)n(CC#N)c2=O)c1 [Compound I-093] | – | – | 10 to 100 nM | < 100 nM | –
Cc1cncc(-n2c(=O)c(Cc3cc(F)c(F)c(F)c3)c(N3CC[C@@H](C(N)=O)C3)n(CC#N)c2=O)c1 [Compound I-096] | – | < 100 nM | < 10 nM | – | –
Cc1cncc(-n2c(=O)c(Cc3cc(F)c(F)c(F)c3)c(N3CCN(C)C(=O)C3)n(CC#N)c2=O)c1 [Compound I-098] | – | < 100 nM | < 10 nM | – | –
Cc1cncc(-n2c(=O)c(Cc3cc(F)c(F)c(F)c3)c(N3CC4(CCOC4)C3)n(CC#N)c2=O)c1 [Compound I-101] | – | < 100 nM | < 10 nM | – | –
Cc1cncc(-n2c(=O)c(Cc3cc(F)c(F)c(F)c3)c(N3CCC(CO)CC3)n(CC#N)c2=O)c1 [Compound I-104] | – | < 100 nM | < 10 nM | – | –
Cc1cncc(-n2c(=O)c(Cc3cc(F)c(F)c(F)c3)c(N3CC4(C3)CC(F)(F)C4)n(CC#N)c2=O)c1 [Compound I-105] | – | < 100 nM | < 10 nM | – | –
COC1CCN(c2c(Cc3cc(F)c(F)c(F)c3)c(=O)n(-c3cncc(C)c3)c(=O)n2CC#N)CC1 [Compound I-106] | – | < 100 nM | < 10 nM | – | –
Cc1cncc(-n2c(=O)c(Cc3cc(F)c(F)c(F)c3)c(N3CCC(C)(O)CC3)n(CC#N)c2=O)c1 [Compound I-109] | – | < 100 nM | < 10 nM | – | –
Cc1cncc(-n2c(=O)c(Cc3cc(F)c(F)c(F)c3)c(N3CCC4(CCOCC4)C3)n(CC#N)c2=O)c1 [Compound I-111] | – | < 100 nM | < 10 nM | – | –
